“And” between values parts separate entries of the source, which are not always exact repeats. Identical values can stand only once.
Legend:
[1] = test system: hyperlipidemic male albino rabbits; assay: Hypolipidemic activity in cholesterol fed hyperlipidemic rabbits (90 days); type: in vivo
Description: Effect of 3β-Hydroxypregna-5,16-dien-20-one (2) was studied on hypercholesterolemic albino rabbits. Twelve male albino rabbits (approx 1.5-2 kg) on a stock diet were made hyperlipidemic by feeding daily cholesterol 0.5 g/kg in 2 ml of groundnut oil for 45 days and then blood was drawn from the marginal vein in the ear of rabbits for serum cholesterol and triglycerides estimation.
Two controlled experiments were carried out for a period of three months. In one set of experiments, the control group received 0.5 g/kg of cholesterol for 90 days and 3β-Hydroxypregna-5,16-dien-20-one (2) in dose of 100 mg/kg and 50 mg/kg while in control group (given only cholesterol) a massive rise of serum cholesterol and triglycerides were seen after 90 days, the addition of 3β-Hydroxypregna-5,16dien-20-one (2) at 50 and 100 mg/kg doses kept the rise well under control. The percentage decrease at 100 mg dose was 28% at 30 days to 52% at 90 days for cholesterol and 45 to 81% for triglycerides. In the 50 mg/kg dose group the decrease percentage ranged from 40% at 30 days to 50% at 90 days for cholesterol and 45% at 30 days to 75% at 90 days for triglyceride (Table6)

hyperlipidemic rabbits = assay: Hypolipidemic effect in hyperlipidemic rabbits (120 days experiment); type: in vivo; parameters: Serum Triglycerides: unit not given here; conditions: 100 mg/kg
glucose loaded rats = assay: Hypoglycemic activity in glucose loaded rats; type: in vivo, albino rats (Charles Foster strain); conditions: for Blood Glucose Level: 100 mg/kg p.o. + glucose 2.0 g/kg; for % inhibition compared to control (blood glucose): 100 mg/kg
Description: The experiments were carried out with albino rats (Charles Foster strain) of either sex weighing 150-160 g. They were fed on laboratory diet prepared by M/s Lipton India Ltd. and maintained under 12 hr. light/dark cycle at 25±2° C.
The animals were divided into eight groups, each of six rats; group I was given 1% gum acacia (0.1 ml/100 g body weight) intragastrically (p.o.) and the group II were given 3β-hydroxypregna-5,16-dien-20-one (2) in 1% gum acacia. Animals of group III were given the standard antidiabetic drug, tolbutamide in the similar fashion. 2.0 g/kg glucose was given p.o. to all the rats along with the vehicle/Compound/Standard antidiabetic drug. Blood samples were taken from retroorbital plexus at periodic intervals. Glucose levels in the blood samples were measured by glucose oxidase method [Bergmeyer and Benut, 1963 cited in “Methods of Enzymatic Analysis” ed. H. Bergmeyer, Verlag Chemie, GmBH, Weinheim, Beroster, pp123, Academic press, New York].

[2] = test system: streptozotocin induced diabetic rats; assay: Hypoglycemic activity in streptozotocin induced hyperglycemic rats; type: in vivo; conditions: 100 mg/kg p.o.
Description: Hyperglycemia in rats was produced by streptozotocin treatment. The animals showing blood glucose levels between 250-350 mg/dl were selected. Blood samples were collected after treatment at intervals and blood glucose levels were estimated immediately.

Human serum LDL = assay: Cu2+ induced oxidation of low density lipoprotein (TBA reactive lipid peroxides); type: biochemical; conditions: for MDA (Exp.): 16 hr at 37° C., pH 7.4
Description: Human serum LDL was oxidized with Cu^′2 in different concentrations of test compound in 0.05 mole PBS, pH 7.4 for 16 hr at 37° C. Thiobarbituric acid reactive lipid peroxides are measured by standard procedure. […] Cu^′2 induced oxidation in LDL lipids are mainly due to the free OH radical during incubation.

[3] = test system: isoproterneol induced myocardial necrosis in rat; assay: Isoproterneol induced myocardial necrosis in rats; type: in vivo; conditions: isoproterneol 85 mg/kg + drug 25 mg/kg p.o.
Excerpt: The underlying cause of myocardial infarction is believed to be the progressive deposition of lipids and fibrotic material into the arterial wall. These pregnadienols and pregnadienous also provided cardiac protection as assessed in isoproterneol induced myocardial necrosis in rat model, which produces myocardial infarction due to an increased blood pressure and heart rate.

[4] = 50 mg/kg + cholesterol 0.5 g/kg, day 30
[5] = 50 mg/kg + cholesterol 0.5 g/kg, day 60
[6] = 50 mg/kg + cholesterol 0.5 g/kg, day 90
[7] = 100 mg/kg + cholesterol 0.5 g/kg, day 30
[8] = 100 mg/kg + cholesterol 0.5 g/kg, day 60
[9] = 100 mg/kg + cholesterol 0.5 g/kg, day 90

Compound: CC(=O)C1=CC[C@H]2[C@@H]3CC=C4C[C@@H](O)CC[C@]4(C)[C@H]3CC[C@]12C [Compound 2, 3β-Hydroxypregna-5,16-dien-20-one]
- S. Cholesterol [1, 4]: 190.5 mg %
- S. Triglycerides [1, 4]: 79.5 mg %
- S. Cholesterol [1, 5]: 305.5 mg %
- S. Triglycerides [1, 5]: 67.0 mg %
- S. Cholesterol [1, 6]: 660.3 mg %
- S. Triglycerides [1, 6]: 56.5 mg %
- S. Cholesterol % Decrease vs cholesterol control ([1]; 50 mg/kg, day 30): 40%
- S. Triglycerides % Decrease vs cholesterol control ([1]; 50 mg/kg, day 30): 45%
- S. Cholesterol % Decrease vs cholesterol control ([1]; 50 mg/kg, day 60): 43%
- S. Triglycerides % Decrease vs cholesterol control ([1]; 50 mg/kg, day 60): 64%
- S. Cholesterol % Decrease vs cholesterol control ([1]; 50 mg/kg, day 90): 50% and 51%
- S. Triglycerides % Decrease vs cholesterol control ([1]; 50 mg/kg, day 90): 75% and 76%
- S. Cholesterol [1, 7]: 213.3 mg %
- S. Triglycerides [1, 7]: 79.0 mg %
- S. Cholesterol [1, 8]: 309.3 mg %
- S. Triglycerides [1, 8]: 54.0 mg %
- S. Cholesterol [1, 9]: 633.7 mg %
- S. Triglycerides [1, 9]: 44.2 mg %
- S. Cholesterol % Decrease vs cholesterol control ([1]; 100 mg/kg, day 30): 28%
- S. Triglycerides % Decrease vs cholesterol control ([1]; 100 mg/kg, day 30): 45% and 46%
- S. Cholesterol % Decrease vs cholesterol control ([1]; 100 mg/kg, day 60): 42%
- S. Triglycerides % Decrease vs cholesterol control ([1]; 100 mg/kg, day 60): 64%
- S. Cholesterol % Decrease vs cholesterol control ([1]; 100 mg/kg, day 90): 52% and 53%
- S. Triglycerides % Decrease vs cholesterol control ([1]; 100 mg/kg, day 90): 81%
- Serum Cholesterol % Decrease (Compared with HFD) (hyperlipidemic rabbits): 74%
- Serum Triglycerides % Decrease (Compared with HFD) (hyperlipidemic rabbits): 61%
- Serum Cholesterol (hyperlipidemic rabbits; HFD): 350.0 ± 28.1 mg/dL
- Serum Triglycerides (hyperlipidemic rabbits; HFD): 74.2 ± 10.3
- Maximum Blood Glucose Change (glucose loaded rats; 100 mg/kg p.o. + glucose): −18.7%
- Blood Glucose Level (glucose loaded rats; 0 min): 42.43 ± 1.64 mg/dL
- Blood Glucose Level (glucose loaded rats; 30 min): 76.15 ± 6.07 mg/dL
- Blood Glucose Level (glucose loaded rats; 60 min): 56.06 ± 4.65 mg/dL
- Blood Glucose Level (glucose loaded rats; 90 min): 55.06 ± 2.61 mg/dL
- Blood Glucose Level (glucose loaded rats; 120 min): 49.59 ± 1.66 mg/dL
- % inhibition compared to control (blood glucose) (glucose loaded rats; 30 min): (48) %
- % inhibition compared to control (blood glucose) (glucose loaded rats; 60 min): (55) %
- % inhibition compared to control (blood glucose) (glucose loaded rats; 90 min): (54) %
- % inhibition compared to control (blood glucose) (glucose loaded rats; 120 min): (34) %
- Blood Glucose Level ([2]; 0 hr): 274 ± 9 mg/dL
- % lowering from zero hour value (blood glucose) ([2]; 1 hr): (11.3) %
- % lowering from zero hour value (blood glucose) ([2]; 2 hr): (15.6) %
- % lowering from zero hour value (blood glucose) ([2]; 3 hr): (25.9) %
- % lowering from zero hour value (blood glucose) ([2]; 4 hr): (33.2) %
- % lowering from zero hour value (blood glucose) ([2]; 5 hr): (42.7) %
- % lowering from zero hour value (blood glucose) ([2]; 6 hr): (51.4) %
- % lowering from zero hour value (blood glucose) ([2]; 7 hr): (62.7) %
- % lowering from zero hour value (blood glucose) ([2]; 8 hr): (66.7) %
- % lowering from zero hour value (blood glucose) ([2]; 24 hr): (52.2) %
- % inhibition of LDL oxidation (Human serum LDL; 2.5 μmol/ml): (26) %
- MDA (Exp.) (Human serum LDL; 2.5 μmol/ml): 41.4 ± 1.7 n mol MDA/mg protein
- % inhibition of LDL oxidation (Human serum LDL; 5.0 μmol/ml): (49) %
- MDA (Exp.) (Human serum LDL; 5.0 μmol/ml): 28.7 ± 4.0 n mol MDA/mg protein
- % inhibition of LDL oxidation (Human serum LDL; 10.0 μmol/ml): (74) %
- MDA (Exp.) (Human serum LDL; 10.0 μmol/ml): 10.6 ± 0.5 n mol MDA/mg protein
- % inhibition of LDL oxidation (Human serum LDL; 20 μmol/ml): (89) %
- MDA (Exp.) (Human serum LDL; 20 μmol/ml): 4.0 ± 0.5 n mol MDA/mg protein
- generation of LDL lipid peroxide (in words) (Human serum LDL; tested concentrations): inhibit the generation of LDL lipid peroxide in concentration dependent manner
- Heart Ca. - ATPase % Protection [3]: 30.2%
- Heart Glycogen % Protection [3]: 25.1%
- Heart Lipid peroxide % Protection [3]: 72.6%
- Heart Phospholipase % Protection [3]: 74.2%
- Serum Alkaline Phosphatase % Protection [3]: 24.0%
- Serum CPK % Protection [3]: 35.7%
- Serum GOT % Protection [3]: 27.0%
- Serum GPT % Protection [3]: 22.7%

— US6875758B2, “Method of treating hyperlipidemic and hyperglycemic conditions in mammals using pregnadienols and pregnadienones” (Council of Scientific & Industrial Research, priority 1999, dated 2005)
